Here are results for one compound from patent US8686016B2, “Schweinfurthins and uses thereof” (The United States of America, as represented by the …, priority 2009, dated 2014).

Assay [1] relates to primary astrocytes. Kind of assay: Cell morphology / actin confocal microscopy, primary astrocytes. The class given is cell-based, mouse. The following applies: 18 hours treatment. As for the experimental part:
(§1) Cell Morphology Assays and Confocal Microscopy: To assay cytoskeleton morphology, KR158 cells, mouse primary astrocytes, KR158 clones expressing the NF1-GRD constructs, K14553 cells, and A549 were seeded to cover slips and allowed to reattach overnight. Cells were treated for 18 hours with either the indicated concentrations of SA, or the vehicle control DMSO. The cover slips were fixed in 3.7% paraformaldehyde, permeablized in 0.1% Triton-X100, and stained with Alexa Fluor 488-phalloidin (Invitrogen, Carlsbad, Calif., USA) to detect actin and cells were mounted in Prolong Antifade containing DAPI (Invitrogen) to stain nuclei. The cells were imaged on a LSM510 confocal microscope (Carl Zeiss Inc., Jena, Germany). For phospho-myosin light chain 2 (MLC) detection, cells were seeded to coverslips as described above. Cells were serum starved in 0.5% FBS and SA or DMSO vehicle control for 18 hours, and then pulsed with 10 ng/mL EGF (Invitrogen) for 5 min. […] Actin structures were monitored continuously over a 16 hr period using confocal microscopy equipped with a growth chamber (37° C., humidified atmosphere and 5% CO2). […]

Assay [2] deals with SNB-75. Kind of assay: NCI60 cell line response to SA, SNB-75. The class given is cell-based, human. The following applies: SNB-75, doubling time 62.8 hours.
The subject of assay [3] is A549 human lung carcinoma cells. Kind of assay: Clonogenic assay, A549. The class given is cell-based. The following applies: 18 hrs treatment, colonies after one week. The method, then:
Clonogenic Assays: Monolayers of cells were treated for 18 hrs with SA, and then harvested, counted, and seeded to 35 mm dishes at a density of 1000 cells per dish. After one week, macroscopic colonies were stained with crystal violet (Sigma, St. Louis, Mo., USA) and counted.

Assay [4] deals with NF1-GRD expressing KR158 clones. Kind of assay: Cell morphology / actin confocal microscopy, NF1-GRD KR158. The assay is classed as cell-based, mouse. As for the experimental part: Constructs and Transfections: NF1-GRD retroviral constructs were obtained from Indiana University. Cells transduced with the NF1-GRD construct or PMSCV empty vector control as previously described (Hiatt et al., J. Biol. Chem., 2001, 276:7240-5) were maintained in 1 μg/mL puromycin (Sigma).
as §1, with “above.” for “above. Cells were serum starved in 0.5% FBS and SA or DMSO vehicle control for 18 hours, and then pulsed with 10 ng/mL EGF (Invitrogen) for 5 min.”

Assay [5] relates to MPNST K16561 cells. Kind of assay: XTT cell proliferation assay, K16561. The class given is cell-based, mouse. The method, then:
Establishment of NPcis MPNST cell lines: Mice were euthanized by CO2 asphyxiation and tumors were dissected. The tumor volume was measured. The tumor was then cut in half, and ½ fixed in 4% PFA. The other half was rinsed, then cut into 24 pieces of approximately equal size. Each piece was diced with a razor blade and placed in 1 well of a 24 well plate, along with 625 μL of Triple Express (Gibco, Grand Island, N.Y., USA) and 5 μL of recombinant DNAse (Roche, Indianapolis, Ind., USA). Tumors were triturated, then incubated at 37° C. in a 5% CO2 incubator for 2-5 hours, with an additional trituration halfway through incubation time. At the end of the incubation, tumor pieces were triturated again, and suspended cells were transferred to 1.5 mL eppendorf tubes. […] Both plates were monitored for cell growth, grown up to 10 cm plates, and frozen down in 10% DMSO. […]
XTT Cell Proliferation Assay: Cells were seeded into 96-well plates at a density of 2,000 cells/well and allowed to reattach overnight. Cells were treated with SA, synthetic analogs, camptothecin (NCI Chemotherapeutics Repository, Md., USA), or DMSO control at the indicated concentrations continuously for 48 hours followed by assay in the 96-well plate for relative viable cell number using the dye […] (XTT) and a Wallac-Victor 2 plate reader (Perkin-Elmer, Waltham, Mass., USA). […]

Structures are written as SMILES. “Also recorded” adds a separate entry of the source.

In the case of `CC(C)=CCC/C(C)=C/Cc1c(O)cc(/C=C/c2cc(O)c3c(c2)C[C@@H]2C(C)(C)[C@H](O)[C@H](O)C[C@@]2(C)O3)cc1O` [SA, Schweinfurthin A], in assay [1], the “actin organization, phalloidin staining” value was “no visible changes in actin organization”. This compound also had a logGI50 in assay [2] of −7.82. Moreover, the colony growth entry in assay [3] is on record as “not inhibited; also recorded: formed colonies up to the highest concentration of SA tested”. Besides, the actin structures result in assay [4] was “did not change”. Moreover, the “inhibition of proliferation (percent viability versus control)” value in assay [5] is given as “dose dependent inhibition of proliferation; also recorded: sensitive”.
